We go through six compounds from patent publication US11780893B2, “Kv1.3 blockers” (Zealand Pharma A/S, priority 2019, dated 2023).

For one experiment, the target named is Rat whole blood (Rattus norvegicus, UniProt P15384).
For experiment [1], the target named is T1, human Kv1.3 voltage-gated K+ channel (Homo sapiens, UniProt P22001).
T1 construct: host or cells: CHO-DUKX
In words: cell-based. To be noted: inhibition of thallium flux, CHO-DUKX cells with human Kv1.3; read-out: IC50.

The mark [2] stands for this setting: inhibition of IL-17A release, thapsigargin, 24 Hr, at least 2 replicates.

Each structure is given as a SMILES string. pIC50: −log10 of the molar value. Where two headings read alike, the source gives them in different places. Bridge positions count the residues as written; N and C are the ends. Square brackets hold non-standard residues; d marks the D form. Peptide text beside a SMILES is read from it. Phe(4-NO2) = N[C@@H](Cc1ccc([N+](=O)[O-])cc1)C(=O)O; Phe(4-F) = N[C@@H](Cc1ccc(F)cc1)C(=O)O; Aad = N[C@@H](CCCC(=O)O)C(=O)O; Nle = CCCC[C@H](N)C(=O)O

T1 sequence (P22001 whole entry): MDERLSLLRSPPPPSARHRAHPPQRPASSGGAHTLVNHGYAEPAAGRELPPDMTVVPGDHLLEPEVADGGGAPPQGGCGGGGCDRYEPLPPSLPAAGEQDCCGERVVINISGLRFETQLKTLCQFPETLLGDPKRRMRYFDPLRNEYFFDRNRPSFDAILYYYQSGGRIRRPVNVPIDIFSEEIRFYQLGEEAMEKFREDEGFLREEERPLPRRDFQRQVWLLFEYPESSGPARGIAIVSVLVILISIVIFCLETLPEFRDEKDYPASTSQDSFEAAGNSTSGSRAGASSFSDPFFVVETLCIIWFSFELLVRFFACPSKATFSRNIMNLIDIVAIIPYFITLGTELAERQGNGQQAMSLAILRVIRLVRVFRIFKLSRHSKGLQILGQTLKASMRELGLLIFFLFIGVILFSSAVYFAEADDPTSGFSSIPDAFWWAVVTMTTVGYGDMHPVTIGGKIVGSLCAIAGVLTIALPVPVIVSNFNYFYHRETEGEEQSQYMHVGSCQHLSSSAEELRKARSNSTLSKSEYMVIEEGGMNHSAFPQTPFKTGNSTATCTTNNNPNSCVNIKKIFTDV
Chain of Rat whole blood (P15384 whole entry): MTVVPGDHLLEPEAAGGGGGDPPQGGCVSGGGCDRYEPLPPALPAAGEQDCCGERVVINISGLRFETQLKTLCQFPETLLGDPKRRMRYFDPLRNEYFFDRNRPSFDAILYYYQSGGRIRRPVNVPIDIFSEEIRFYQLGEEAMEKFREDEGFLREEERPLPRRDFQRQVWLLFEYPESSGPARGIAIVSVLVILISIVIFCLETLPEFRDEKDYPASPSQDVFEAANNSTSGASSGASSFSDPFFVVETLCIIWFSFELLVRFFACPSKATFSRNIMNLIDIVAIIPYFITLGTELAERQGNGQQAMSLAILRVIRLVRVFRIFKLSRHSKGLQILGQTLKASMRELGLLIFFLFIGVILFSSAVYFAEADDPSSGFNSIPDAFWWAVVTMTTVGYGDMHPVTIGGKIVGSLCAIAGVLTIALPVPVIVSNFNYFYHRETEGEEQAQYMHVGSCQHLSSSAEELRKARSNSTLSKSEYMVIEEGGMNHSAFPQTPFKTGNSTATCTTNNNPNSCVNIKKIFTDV

Broadly, the pIC50 is the IC50 on a negative log10 scale, so that one unit is a factor of ten. For `CCCC[C@H](NC(=O)[C@@H]1CCCN1)C(=O)N[C@@H](CC(=O)O)C(=O)N[C@@H](CCCC)C(=O)N[C@@H](CCCNC(=N)N)C(=O)N[C@H]1CSSC[C@@H]2NC(=O)[C@H](CCCCN)NC(=O)CNC(=O)[C@H](Cc3ccccc3)NC(=O)[C@H]([C@@H](C)CC)NC(=O)[C@H](CO)NC(=O)CNC(=O)[C@H]([C@@H](C)CC)NC(=O)[C@H](C)NC(=O)[C@H](CCCC(N)=O)NC(=O)[C@H](CC(C)C)NC(=O)[C@@H]3CSSC[C@@H](C(=O)N[C@@H](Cc4ccc(O)cc4)C(=O)N4CCC[C@H]4C(=O)N[C@@H](CCCNC(=N)N)C(N)=O)NC(=O)[C@H](CCCCN)NC(=O)[C@H](CSSC[C@H](NC(=O)[C@H](CCC(=O)O)NC(=O)[C@H](C(C)C)NC(=O)[C@H](CO)NC(=O)[C@H](C)NC(=O)[C@H](CO)NC1=O)C(=O)N[C@@H](CCCCN)C(=O)N[C@@H](CCC(=O)O)C(=O)N[C@@H](CCCCN)C(=O)N3)NC(=O)[C@H](CCCCN)NC(=O)[C@H](CCCCN)NC(=O)[C@H](CC(N)=O)NC(=O)[C@H](CCCC)NC2=O` [Compound 85] (H-P[Nle]D[Nle]RCSASVECKEKCL[Aad](NH2)AIGSIFGKC[Nle]NKKCKCYPR-NH2; disulfide 6-27, 12-32, 16-34), the values for the pIC50 (against Rat whole blood (setting [2]); in experiment [1]) were 8.85 and 9.82, respectively.

With `CCCC[C@@H]1NC(=O)[C@@H]2CSSC[C@H](N)C(=O)N[C@@H](CO)C(=O)N[C@@H](C)C(=O)N[C@@H](CO)C(=O)N[C@@H](C(C)C)C(=O)N[C@@H](CCC(=O)O)C(=O)N[C@H]3CSSC[C@H](NC(=O)[C@H](CCCCN)NC(=O)[C@H](CCCCN)NC(=O)[C@H](CC(N)=O)NC1=O)C(=O)N[C@@H](CCCCN)C(=O)N[C@H]1CSSC[C@H](NC(=O)[C@H](CCCCN)NC(=O)[C@H](CCC(N)=O)NC(=O)[C@H](CCCCN)NC3=O)C(=O)N[C@@H](CC(C)C)C(=O)N[C@@H](CCCCN)C(=O)N[C@@H](C)C(=O)N[C@@H]([C@@H](C)CC)C(=O)NCC(=O)N[C@@H](CSSC[C@@H](C(N)=O)NC(=O)[C@@H]3CCCN3C(=O)[C@H](Cc3ccc(O)cc3)NC1=O)C(=O)N[C@@H]([C@@H](C)CC)C(=O)N[C@@H](Cc1ccccc1)C(=O)NCC(=O)N[C@@H](CCCCN)C(=O)N2` [Compound 86] (H-CSASVECKQKCLKAIGCIFGKC[Nle]NKKCKCYPC-NH2; disulfide 1-22, 7-27, 11-29, 17-32), the results for the negative logarithm of the IC50 (pIC50) (against Rat whole blood (setting [2]); in experiment [1]) were 8.96 and 9.70, respectively.

With `CCCC[C@@H]1NC(=O)[C@@H]2CSSC[C@H](NC(=O)[C@H](CCCNC(=N)N)NC(=O)[C@H](CCCC)NC(=O)[C@H](CC(=O)O)NC(=O)[C@H](CCCC)NC(=O)[C@@H](N)CO)C(=O)N[C@@H](CO)C(=O)N[C@@H](C)C(=O)N[C@@H](CO)C(=O)N[C@@H](C(C)C)C(=O)N[C@@H](CCC(=O)O)C(=O)N[C@H]3CSSC[C@H](NC(=O)[C@H](CCCCN)NC(=O)[C@H](CCCCN)NC(=O)[C@H](CC(N)=O)NC1=O)C(=O)N[C@@H](CCCCN)C(=O)N[C@H]1CSSC[C@H](NC(=O)[C@H](CCCCN)NC(=O)[C@H](CCC(N)=O)NC(=O)[C@H](CCCCN)NC3=O)C(=O)N[C@@H](CC(C)C)C(=O)N[C@@H](C)C(=O)N[C@@H](C)C(=O)N[C@@H]([C@@H](C)CC)C(=O)NCC(=O)N[C@@H](CSSC[C@@H](C(N)=O)NC(=O)[C@@H]3CCCN3C(=O)[C@H](Cc3ccc(O)cc3)NC1=O)C(=O)N[C@@H]([C@@H](C)CC)C(=O)N[C@@H](Cc1ccccc1)C(=O)NCC(=O)N[C@@H](CCCCN)C(=O)N2` [Compound 87] (H-S[Nle]D[Nle]RCSASVECKQKCLAAIGCIFGKC[Nle]NKKCKCYPC-NH2; disulfide 6-27, 12-32, 16-34, 22-37), the results for the pIC50 (against Rat whole blood; against Rat whole blood (setting [2]); in experiment [1]) were at least 9.00, 9.14 and 10.00, respectively.

For the compound `CCCC[C@H](NC(=O)[C@@H]1CCCN1)C(=O)N[C@@H](CC(=O)O)C(=O)N[C@@H](CCCC)C(=O)N[C@@H](CCCNC(=N)N)C(=O)N[C@H]1CSSC[C@@H]2NC(=O)[C@H](CCCCN)NC(=O)CNC(=O)[C@H](Cc3ccccc3)NC(=O)[C@H]([C@@H](C)CC)NC(=O)[C@@H]3CSSC[C@@H](C(=O)O)NC(=O)[C@@H]4CCCN4C(=O)[C@H](Cc4ccc(O)cc4)NC(=O)[C@@H]4CSSC[C@H](NC(=O)[C@H](CCCCN)NC(=O)[C@H](CCC(N)=O)NC(=O)[C@H](CCCCN)NC(=O)[C@H](CSSC[C@H](NC(=O)[C@H](CCCCN)NC(=O)[C@H](CCCCN)NC(=O)[C@H](CC(N)=O)NC(=O)[C@H](CCCC)NC2=O)C(=O)N[C@@H](CCCCN)C(=O)N4)NC(=O)[C@H](CCC(=O)O)NC(=O)[C@H](C(C)C)NC(=O)[C@H](CO)NC(=O)[C@H](C)NC(=O)[C@H](CO)NC1=O)C(=O)N[C@@H](CC(C)C)C(=O)N[C@@H](CCCCN)C(=O)N[C@@H](C)C(=O)N[C@@H]([C@@H](C)CC)C(=O)NCC(=O)N3` [Compound 88] (H-P[Nle]D[Nle]RCSASVECKQKCLKAIGCIFGKC[Nle]NKKCKCYPC-OH; disulfide 6-27, 12-32, 16-34, 22-37), the negative logarithm of the IC50 (pIC50) on Rat whole blood (setting [2]) is 8.96; in experiment [1], 9.57.

As for `CCCC[C@H](NC(=O)[C@H](CC(=O)O)NC(=O)[C@H](CCCC)NC(=O)[C@@H](N)CO)C(=O)N[C@@H](CCCNC(=N)N)C(=O)N[C@H]1CSSC[C@@H]2NC(=O)[C@H](CCCCN)NC(=O)CNC(=O)[C@H](Cc3ccccc3)NC(=O)[C@H]([C@@H](C)CC)NC(=O)[C@H](CO)NC(=O)CNC(=O)[C@H]([C@@H](C)CC)NC(=O)[C@H](C)NC(=O)[C@H](CCCCN)NC(=O)[C@H](CC(C)C)NC(=O)[C@@H]3CSSC[C@@H](C(=O)N[C@@H](Cc4ccc(F)cc4)C(=O)N4CCC[C@H]4C(=O)N[C@@H](CCCNC(=N)N)C(N)=O)NC(=O)[C@H](CCCCN)NC(=O)[C@H](CSSC[C@H](NC(=O)[C@H](CCC(=O)O)NC(=O)[C@H](C(C)C)NC(=O)[C@H](CO)NC(=O)[C@H](C)NC(=O)[C@H](CO)NC1=O)C(=O)N[C@@H](CCCCN)C(=O)N[C@@H](CCC(N)=O)C(=O)N[C@@H](CCCCN)C(=O)N3)NC(=O)[C@H](CCCCN)NC(=O)[C@H](CCCCN)NC(=O)[C@H](CC(N)=O)NC(=O)[C@H](CCSC)NC2=O` [Compound 91] (H-S[Nle]D[Nle]RCSASVECKQKCLKAIGSIFGKCMNKKCKC[Phe(4-F)]PR-NH2; disulfide 6-27, 12-32, 16-34), the values for the pIC50 (on Rat whole blood; against Rat whole blood (setting [2]); in experiment [1]) were at least 9.00, 9.47 and 10.00, respectively.

Turning to `CCCC[C@H](NC(=O)[C@H](CC(=O)O)NC(=O)[C@H](CCCC)NC(=O)[C@@H](N)CO)C(=O)N[C@@H](CCCNC(=N)N)C(=O)N[C@H]1CSSC[C@@H]2NC(=O)[C@H](CCCCN)NC(=O)CNC(=O)[C@H](Cc3ccccc3)NC(=O)[C@H]([C@@H](C)CC)NC(=O)[C@H](CO)NC(=O)CNC(=O)[C@H]([C@@H](C)CC)NC(=O)[C@H](C)NC(=O)[C@H](CCCCN)NC(=O)[C@H](CC(C)C)NC(=O)[C@@H]3CSSC[C@@H](C(=O)N[C@@H](Cc4ccc([N+](=O)[O-])cc4)C(=O)N4CCC[C@H]4C(=O)N[C@@H](CCCNC(=N)N)C(N)=O)NC(=O)[C@H](CCCCN)NC(=O)[C@H](CSSC[C@H](NC(=O)[C@H](CCC(=O)O)NC(=O)[C@H](C(C)C)NC(=O)[C@H](CO)NC(=O)[C@H](C)NC(=O)[C@H](CO)NC1=O)C(=O)N[C@@H](CCCCN)C(=O)N[C@@H](CCC(N)=O)C(=O)N[C@@H](CCCCN)C(=O)N3)NC(=O)[C@H](CCCCN)NC(=O)[C@H](CCCCN)NC(=O)[C@H](CC(N)=O)NC(=O)[C@H](CCSC)NC2=O` [Compound 92] (H-S[Nle]D[Nle]RCSASVECKQKCLKAIGSIFGKCMNKKCKC[Phe(4-NO2)]PR-NH2; disulfide 6-27, 12-32, 16-34), the negative-log IC50 (pIC50) is 8.89 against Rat whole blood (setting [2]) and 9.31 in experiment [1].
